The assay has as its target T1, Aβ42 (amyloid-β protein) (Homo sapiens, UniProt P05067).
T1 construct: gene APP; synthetic Aβ42 peptide, low-molecular-weight (LMW, monomeric) Aβ42
The experiment in a line: ThT fluorescence aggregation assay with purified LMW Aβ[…] (no seeds); electron microscopy. Type of assay: biochemical.

T1 sequence (P05067 672-713 limits assumed): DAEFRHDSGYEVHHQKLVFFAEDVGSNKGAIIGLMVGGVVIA

For orientation: EC50 means the concentration at which the effect is half-maximal. Lower therefore signals a more potent agent. In turn, `COc1cc(CCC(=O)O)ccc1O` [HMPA, 3-(4-Hydroxy-3-methoxyphenyl) propionic acid] came in with a concentration giving a half-maximal response (EC50) of 6.37 mM. This counts as millimolar.

These data come from publication PMC12292628, “Inhibitory Effects of 3-(4-Hydroxy-3-methoxyphenyl) Propionic Acid on Amyloid β-Peptide Aggregation In Vitro” (Biomedicines, 2025).
